Results reported in US10760052B2, “Method of inhibiting tau phosphorylation” (priority 2012, dated 2020).

Target: T1, mu opiate receptor (MOR) (Rattus norvegicus, UniProt P33535)
T1 construct: from tissue; host or cells: striatum (membrane preparation)
Type: biochemical
Settings: for Concentration of FLNA-Binding Compound as Agonist 0.1 μM / Concentration of FLNA-Binding Compound as Agonist 1 μM / Concentration of FLNA-Binding Compound as Agonist 1 μM + BFNA: [35S]GTPγS binding to Gαo in striatal membranes; for Concentration of FLNA-Binding Compound as Agonist 0.1 μM: compound 0.1 μM; for Concentration of FLNA-Binding Compound as Agonist 1 μM: compound 1 μM; for Concentration of FLNA-Binding Compound as Agonist 1 μM + BFNA: compound 1 μM plus 1 μM β-funaltrexamine (MOR antagonist); for [35S]GTPγS binding, FLNA-Binding Compound as Agonist at 0.1 μM: 0.1 μM compound; for [35S]GTPγS binding, FLNA-Binding Compound as Agonist at 0.1 μM / [35S]GTPγS binding, FLNA-Binding Compound as Agonist at 1 μM: striatal membranes; for [35S]GTPγS binding, FLNA-Binding Compound as Agonist at 0.1 μM / [35S]GTPγS binding, FLNA-Binding Compound as Agonist at 1 μM + BFNA / [35S]GTPγS binding, FLNA-Binding Compound as Agonist at 1 μM: Series C-2; for [35S]GTPγS binding, FLNA-Binding Compound as Agonist at 1 μM + BFNA: 1 μM compound + 1 μM β-FNA (selective MOR antagonist); for [35S]GTPγS binding, FLNA-Binding Compound as Agonist at 1 μM: 1 μM compound

T1 sequence (P33535 whole entry): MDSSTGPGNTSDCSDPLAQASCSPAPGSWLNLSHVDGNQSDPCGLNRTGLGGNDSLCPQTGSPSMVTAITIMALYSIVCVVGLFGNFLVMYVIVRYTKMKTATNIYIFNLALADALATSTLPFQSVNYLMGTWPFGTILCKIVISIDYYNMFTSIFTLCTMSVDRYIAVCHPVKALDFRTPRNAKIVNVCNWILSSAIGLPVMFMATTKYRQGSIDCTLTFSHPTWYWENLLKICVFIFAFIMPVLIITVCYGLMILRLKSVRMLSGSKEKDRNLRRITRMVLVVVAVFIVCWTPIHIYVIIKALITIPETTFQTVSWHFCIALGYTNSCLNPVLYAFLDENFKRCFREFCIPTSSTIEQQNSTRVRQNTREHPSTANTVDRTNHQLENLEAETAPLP

| SMILES | % DAMGO (0.1 μM) [%] | % DAMGO (1 μM) [%] | % DAMGO + BFNA [%] | Concentration of FLNA-Binding Compound as Agonist 0.1 μM [%] | Concentration of FLNA-Binding Compound as Agonist 1 μM [%] | Concentration of FLNA-Binding Compound as Agonist 1 μM + BFNA [%] | [35S]GTPγS binding, FLNA-Binding Compound as Agonist at 0.1 μM [%] | [35S]GTPγS binding, FLNA-Binding Compound as Agonist at 1 μM + BFNA [%] | [35S]GTPγS binding, FLNA-Binding Compound as Agonist at 1 μM [%] |
| --- | --- | --- | --- | --- | --- | --- | --- | --- | --- |
| CC1CCC(C(C)C)C(OCC(O)CN2CCCCCC2)C1 (stereo not drawn) [Compound A0013] | 57.8 | 63.6 | 131.1 | 102.1 | 164.8 | 86.1 |  |  |  |
| COc1ccc(NC(=O)N2CCC3(CC2)OCCN3C(=O)Nc2ccc(OC)cc2)cc1 [Compound C0151M] | 201.6 | 122.0 | 233.1 | 346.8 | 397.6 | 212.8 |  |  |  |
| Cc1cccc(S(=O)(=O)N2CCC3(CC2)OCCN3S(=O)(=O)c2cccc(C)c2)c1 [Compound C0014] | 82.0 | 59.2 | 116.1 | 144.9 | 153.5 | 76.3 |  |  |  |
| CC1CCC(C(C)C)C(OCC(O)CN2CCN(CCN3CCCCC3)CC2)C1 (stereo not drawn) [Compound A0031] | 100.9 | 116.8 | 573.8 | 178.2 | 297.0 | 150.9 |  |  |  |
| C=CCN1CCC2(CC1)OCCN2S(=O)(=O)c1ccc(C(C)=O)cc1 [Compound C0096M] | 105.9 | 130.0 | 577.7 |  |  |  | 186.4 | 127.1 | 328.9 |
| COc1cccc(OC)c1C(=O)CC1c2c(cc3c(c2OC)OCO3)CC[N+]1(C)C (stereo not drawn) [Compound B0023] | 99.4 | 100.1 | 81.8 | 166.1 | 245.3 | 28.4 |  |  |  |
| O=C1CN(Cc2ccccc2)C2(CCN(CC3CC3)CC2)N1 [Compound C0125M] | 89.1 | 78.6 | 329.3 |  |  |  | 168.6 | 159.7 | 195.2 |
| COc1ccc(S(=O)(=O)N2CCC3(CC2)OCCN3S(=O)(=O)c2ccc(OC)cc2)cc1 [Compound 7866] | 79.3 | 94.8 | 129.5 | 152.3 | 308.2 | 62.4 |  |  |  |
| O=C(O)c1ccc(C(=O)N2CCC3(CC2)OCCN3S(=O)(=O)c2ccc(C(=O)O)cc2)cc1 [Compound C0021] | 94.5 | 87.8 | 546.4 | 159.7 | 192.0 | 90.7 |  |  |  |
| O=C1CN(Cc2ccccc2)C2(CCN(S(=O)(=O)c3cc(Cl)c(O)c(Cl)c3)CC2)N1 [Compound C0139M] | 106.2 | 102.2 | 129.8 | 156.1 | 206.6 | 51.0 |  |  |  |
| CC(=O)c1ccc(S(=O)(=O)N2CCC3(CC2)NCC(=O)N3Cc2ccccc2)cc1 [Compound C0082M] | 113.7 | 107.8 | 181.1 | 228.1 | 338.4 | 97.6 |  |  |  |
